According to patent US9587471B2, “Controlling bioavailability of nutrient additions in subsurface formations” (E I DU PONT DE NEMOURS AND COMPANY, priority 2008, dated 2017):

Assays:
Assay type in all cases: cell-based
[1] = tested on: Pseudomonas stutzeri strain LH4:15 (ATCC PTA-8823); experiment: Aerobic growth response (turbidity) to varying concentrations of industrial preservatives;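 also: single plus means slight turbidity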
Protocol: (§1) Typically cells were grown at a temperature in the range of about 25° C. to about 40° C. in an appropriate medium.
Pseudomonas stutzeri strain LH4:15 (ATCC PTA-8823) was grown as outlined in Example 1. Various preservatives commonly used in the food, cosmetic, and water treatment industries were tested for their inhibitory effect at various concentrations (Table 2). Growth was monitored visually and positive growth was indicated by moderate to heavy turbidity.

[2] = tested on: Pseudomonas stutzeri strain LH4:15, ATCC PTA-8823; experiment: Aerobic growth response (turbidity) to varying concentrations of potential microbial nutrients; also: key: − = no turbidity; + = slight turbidity; ++ = moderate to heavy turbidity
Protocol: as §1
Additional potential microbial nutrients were added at various concentrations as outlined in Table 1. Growth was monitored visually with positive growth indicated by moderate to heavy turbidity.

[3] = tested on: Pseudomonas stutzeri strain LH4:15 (ATCC PTA-8823); experiment: Anaerobic growth and survival: biocidal versus biostatic inhibition; conditions: for change in Log cell number: day 0 vs day 7, anaerobic; for Final anaerobic vial OD: starting OD600 = 0.05
Protocol: In this invention, the anaerobic growth and survival was tested in 20 ml crimp-capped anaerobic vials, using a complete nutrient medium of the following composition: Na2HPO4.7H2O, 1.4 g/L, KH2PO4, 0.69 g/L, NH4Cl, 0.5 g/L, MgSO4.7H2O, 0.1/L g, SL-10 trace metals, 10 ml, NaCl, 7.5 g/L, NaHCO3, 7.2 g/L, sodium nitrate, 12 g/L, Na lactate, 7 g/L, yeast extract, 10 mg/L, pH 7.3-7.8.
The anaerobic growth and survival was tested as outlined above. […] Vials were inoculated using an overnight aerobic culture of Pseudomonas stutzeri strain LH4:15 (ATCC PTA-8823) in Luria Bertani medium (LB, Mediatech Inc., Herndon, Va.,) at a final OD600 of 0.05. Within 2 hours of inoculation, serial dilutions from each treatment vial were made into aerobic LB medium to determine the cell numbers at Day 0. After approximately 24 hours cell numbers were estimated by noting the highest positive dilution based on the presence or absence of turbidity in dilutions of 10^−1 to 10^−11 in the serial dilution plates. Cell numbers on Day 0 and Day 7 were measured to obtain a survival estimate during inhibitor exposure.

[4] = 10 g/L, 120 hours of incubation
[5] = 20 g/L, 120 hours of incubation
[6] = 50 g/L, 120 hours of incubation
[7] = 100 g/L, 24 hours of incubation
[8] = 100 g/L, 48 hours of incubation
[9] = 100 g/L, 120 hours of incubation
[10] = 200 g/L, 24 hours of incubation
[11] = 200 g/L, 48 hours of incubation
[12] = 200 g/L, 120 hours of incubation

`Oc1ccccc1` [phenol] was tested. Which “growth (turbidity)” value ([1]; 0.01 g/L) did it give?
The value was “++”.

And the “growth (turbidity)” value ([1]; 0.05 g/L)?
Its value is “++”.

What about the “growth (turbidity)” value ([1]; 0.1 g/L) of the same compound?
The value was “++”.

What about the “growth (turbidity)” value ([1]; 0.5 g/L) of the same compound?
The value was “++”.

What about the “growth (turbidity)” value ([1]; 1 g/L) of the same compound?
The value was “++”.

And the “growth (turbidity)” value ([1]; 10 g/L)?
Its value is “−”.

And the “growth (turbidity)” value ([1]; 50 g/L)?
The value was “−”.

`CCCCCCCCO` [Octanol] was tested. Which “Growth response (turbidity)” value ([2]; 0.001 g/L, 24 hours of incubation) did it give?
The value was “++”.

What about the “Growth response (turbidity)” value ([2]; 0.001 g/L, 48 hours of incubation) of the same compound?
The value was “++”.

What about the “Growth response (turbidity)” value ([2]; 0.001 g/L, 120 hours of incubation) of the same compound?
The value was “++”.

What about the “Growth response (turbidity)” value ([2]; 0.005 g/L, 24 hours of incubation) of the same compound?
The value was “++”.

What about the “Growth response (turbidity)” value ([2]; 0.005 g/L, 48 hours of incubation) of the same compound?
The value was “++”.

What about the “Growth response (turbidity)” value ([2]; 0.005 g/L, 120 hours of incubation) of the same compound?
The value was “++”.

What about the “Growth response (turbidity)” value ([2]; 0.01 g/L, 24 hours of incubation) of the same compound?
The value was “++”.

What about the “Growth response (turbidity)” value ([2]; 0.01 g/L, 48 hours of incubation) of the same compound?
Its value is “++”.

What about the “Growth response (turbidity)” value ([2]; 0.01 g/L, 120 hours of incubation) of the same compound?
Its value is “++”.

And the “Growth response (turbidity)” value ([2]; 0.05 g/L, 24 hours of incubation)?
Its value is “++”.

What about the “Growth response (turbidity)” value ([2]; 0.05 g/L, 48 hours of incubation) of the same compound?
The value was “++”.

What about the “Growth response (turbidity)” value ([2]; 0.05 g/L, 120 hours of incubation) of the same compound?
The value was “++”.

And the “Growth response (turbidity)” value ([2]; 0.25 g/L, 24 hours of incubation)?
The value was “−”.

What about the “Growth response (turbidity)” value ([2]; 0.25 g/L, 48 hours of incubation) of the same compound?
The value was “−”.

And the “Growth response (turbidity)” value ([2]; 0.25 g/L, 120 hours of incubation)?
Its value is “−”.

And the “Growth response (turbidity)” value ([2]; 0.5 g/L, 24 hours of incubation)?
Its value is “−”.

What about the “Growth response (turbidity)” value ([2]; 0.5 g/L, 48 hours of incubation) of the same compound?
Its value is “−”.

What about the “Growth response (turbidity)” value ([2]; 0.5 g/L, 120 hours of incubation) of the same compound?
The value was “−”.

And the “change in Log cell number” value ([3]; 0.05 g/L)?
Its value is 0.

And the “Final anaerobic vial OD” value ([3]; 0.05 g/L)?
Its value is 0.28.

What about the “change in Log cell number” value ([3]; 0.1 g/L) of the same compound?
The value was −1.

And the “Final anaerobic vial OD” value ([3]; 0.1 g/L)?
The value was 0.4.

What about the “change in Log cell number” value ([3]; 0.2 g/L) of the same compound?
Its value is 0.

What about the “Final anaerobic vial OD” value ([3]; 0.2 g/L) of the same compound?
Its value is 0.54.

What about the “change in Log cell number” value ([3]; 0.25 g/L) of the same compound?
The value was −1.

And the “Final anaerobic vial OD” value ([3]; 0.25 g/L)?
The value was 0.4.

And the “change in Log cell number” value ([3]; 0.5 g/L)?
The value was −1.

What about the “Final anaerobic vial OD” value ([3]; 0.5 g/L) of the same compound?
Its value is 0.01.

And the “effectiveness of the inhibitor in words” value ([3]; judged by OD600 and cell killing, Table 3)?
Its value is “ineffective except at the highest concentrations”.

Which results are given for `OCC(O)CO` [Glycerol]?
Growth response (turbidity) ([2]; 10 g/L, 24 hours of incubation): ++; Growth response (turbidity) ([2]; 10 g/L, 48 hours of incubation): ++; Growth response (turbidity) [2, 4]: ++; Growth response (turbidity) ([2]; 20 g/L, 24 hours of incubation): ++; Growth response (turbidity) ([2]; 20 g/L, 48 hours of incubation): ++; Growth response (turbidity) [2, 5]: ++; Growth response (turbidity) ([2]; 50 g/L, 24 hours of incubation): ++; Growth response (turbidity) ([2]; 50 g/L, 48 hours of incubation): ++; Growth response (turbidity) [2, 6]: ++; Growth response (turbidity) [2, 7]: ++; Growth response (turbidity) [2, 8]: ++; Growth response (turbidity) [2, 9]: ++; Growth response (turbidity) [2, 10]: −; Growth response (turbidity) [2, 11]: −; Growth response (turbidity) [2, 12]: −

Which “change in Log cell number” value ([3]; 50 g/L) does the source give for `[Cl-].[Na+]` [NaCl] here?
The value was −1.

What about the “Final anaerobic vial OD” value ([3]; 50 g/L) of the same compound?
Its value is 0.08.

What about the “change in Log cell number” value ([3]; 80 g/L) of the same compound?
The value was −3.

And the “Final anaerobic vial OD” value ([3]; 80 g/L)?
The value was 0.11.

What about the “change in Log cell number” value ([3]; 100 g/L) of the same compound?
Its value is −1.

And the “Final anaerobic vial OD” value ([3]; 100 g/L)?
Its value is 0.05.

And the “change in Log cell number” value ([3]; 200 g/L)?
The value was −2.

And the “Final anaerobic vial OD” value ([3]; 200 g/L)?
The value was 0.03.

What about the “change in Log cell number” value ([3]; 400 g/L) of the same compound?
Its value is −4.

What about the “Final anaerobic vial OD” value ([3]; 400 g/L) of the same compound?
The value was 0.03.

For `CC(O)C(=O)[O-].[Na+]` (stereo not shown) [Na lactate, sodium lactate], which “Growth response (turbidity)” value ([2]; 10 g/L, 24 hours of incubation) is on record?
Its value is “++”.

And the “Growth response (turbidity)” value ([2]; 10 g/L, 48 hours of incubation)?
Its value is “++”.

And the “Growth response (turbidity)” value [2, 4]?
Its value is “++”.

And the “Growth response (turbidity)” value ([2]; 20 g/L, 24 hours of incubation)?
The value was “++”.

And the “Growth response (turbidity)” value ([2]; 20 g/L, 48 hours of incubation)?
The value was “++”.

And the “Growth response (turbidity)” value [2, 5]?
The value was “++”.

What about the “Growth response (turbidity)” value ([2]; 50 g/L, 24 hours of incubation) of the same compound?
Its value is “−”.

What about the “Growth response (turbidity)” value ([2]; 50 g/L, 48 hours of incubation) of the same compound?
The value was “−”.

What about the “Growth response (turbidity)” value [2, 6] of the same compound?
Its value is “−”.

And the “Growth response (turbidity)” value [2, 7]?
Its value is “−”.

What about the “Growth response (turbidity)” value [2, 8] of the same compound?
Its value is “−”.

And the “Growth response (turbidity)” value [2, 9]?
The value was “−”.

What about the “Growth response (turbidity)” value [2, 10] of the same compound?
The value was “−”.

And the “Growth response (turbidity)” value [2, 11]?
Its value is “−”.

And the “Growth response (turbidity)” value [2, 12]?
Its value is “−”.
